Values quoted from earlier work as cited in patent publication US11555007B2, “Compositions and methods for the treatment of neurological diseases” (Cellix Bio Private Limited, priority 2018, dated 2023).

Tested on: unipolar or bipolar patients in a major depressive episode
Details: intravenous ketamine 0.5 mg/kg versus saline; all 8 treated patients

## CNC1(c2ccccc2Cl)CCCCC1=O (stereo not shown) [ketamine, 2-(2-chlorophenyl)-2-(methylamino)cyclohexan-1-one]
  improvement in depressive symptoms: significant improvement in depressive symptoms
